From ChEMBL document CHEMBL3792286, “A convenient and efficient approach to polyfluorosalicylic acids and their tuberculostatic activity” (Bioorg Med Chem Lett, 2016)
≈ marks a conversion by molar mass, not a printed value. Calls of active or inactive are those of the source. The rule behind the calls is not given here.

Tests used:
[1] = tested on: Mycobacterium tuberculosis; experiment: microbe, parasite or virus in culture; conditions: 240 h
[2] = tested on: Mycobacterium tuberculosis

| Structure (SMILES) | MIC [1] | MIC [2] |
| --- | --- | --- |
| CC1COc2c(N3CCN(C)CC3)c(F)cc3c(=O)c(C(=O)O)cn1c23 (stereo not given) [OFLOXACIN] | 0.1 µg/mL (≈ 0.277 µM) | – |
| NNC(=O)c1ccncc1 [ISONIAZID] | – | inactive |
| O=C(O)c1cc(F)c(F)cc1O | 0.7 µg/mL (≈ 4.02 µM) | – |
| O=C(O)c1ccc(F)c(F)c1O | 1.5 µg/mL (≈ 8.62 µM) | – |
| O=C(O)c1c(O)c(F)c(F)c(F)c1F | 0.7 µg/mL (≈ 3.33 µM) | – |
